{"source": "ChEMBL document CHEMBL5725750", "about": "“Bifunctional compounds and use for reducing uric acid levels” (2018)", "molecular_target": "Xanthine dehydrogenase/oxidase (Homo sapiens, UniProt P47989)", "sequence (P47989 whole entry)": "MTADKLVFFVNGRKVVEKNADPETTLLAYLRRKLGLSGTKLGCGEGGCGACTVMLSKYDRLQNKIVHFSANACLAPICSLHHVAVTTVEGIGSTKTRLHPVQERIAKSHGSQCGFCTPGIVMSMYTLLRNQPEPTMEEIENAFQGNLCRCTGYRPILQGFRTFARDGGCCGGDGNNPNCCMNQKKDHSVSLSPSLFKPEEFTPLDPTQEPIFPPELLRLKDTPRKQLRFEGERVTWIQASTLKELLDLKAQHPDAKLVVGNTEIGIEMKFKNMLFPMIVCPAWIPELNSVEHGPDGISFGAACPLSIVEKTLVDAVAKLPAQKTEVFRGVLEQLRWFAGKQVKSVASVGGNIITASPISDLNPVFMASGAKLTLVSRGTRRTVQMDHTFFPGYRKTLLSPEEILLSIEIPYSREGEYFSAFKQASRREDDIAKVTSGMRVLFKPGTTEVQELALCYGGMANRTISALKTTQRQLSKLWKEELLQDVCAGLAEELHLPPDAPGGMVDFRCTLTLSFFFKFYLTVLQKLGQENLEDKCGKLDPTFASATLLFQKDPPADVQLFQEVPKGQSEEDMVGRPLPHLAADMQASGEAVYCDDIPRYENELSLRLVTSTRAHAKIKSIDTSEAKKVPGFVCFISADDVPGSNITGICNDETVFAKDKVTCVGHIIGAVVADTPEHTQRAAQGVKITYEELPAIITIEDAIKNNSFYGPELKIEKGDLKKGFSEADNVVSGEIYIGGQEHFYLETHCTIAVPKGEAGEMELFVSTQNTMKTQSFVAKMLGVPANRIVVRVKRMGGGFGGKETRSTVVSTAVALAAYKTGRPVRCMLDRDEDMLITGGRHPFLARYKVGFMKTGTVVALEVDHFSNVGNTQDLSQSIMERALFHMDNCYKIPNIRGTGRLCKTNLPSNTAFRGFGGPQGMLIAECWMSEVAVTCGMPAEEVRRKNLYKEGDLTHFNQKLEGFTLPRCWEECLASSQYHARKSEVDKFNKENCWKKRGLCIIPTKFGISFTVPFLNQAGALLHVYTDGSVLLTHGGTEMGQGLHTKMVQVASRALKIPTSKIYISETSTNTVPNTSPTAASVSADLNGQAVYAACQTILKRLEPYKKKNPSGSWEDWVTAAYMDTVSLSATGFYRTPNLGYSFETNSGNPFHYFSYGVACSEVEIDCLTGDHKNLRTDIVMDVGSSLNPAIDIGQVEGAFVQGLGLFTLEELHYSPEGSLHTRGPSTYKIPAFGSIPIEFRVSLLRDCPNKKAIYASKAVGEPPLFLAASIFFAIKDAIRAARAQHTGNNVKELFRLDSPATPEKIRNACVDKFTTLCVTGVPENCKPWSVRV", "assay": "xanthine oxidase activity: Xanthine oxidase inhibition was determined using a standard fluorescence-based assay for xanthine oxidase activity (McHale A, Grimes H, Coughlan M P: Int J Biochem. 10:317-9, 1979) with minor variations. […] Experiments on test compounds were performed in triplicate in multi-well plates using 10 concentrations of each compound that ranged over a 3-fold dilution.", "data": [{"molecule": "O=C(O)CSc1nnc(Br)n1-c1ccc(C2CC2)c2ccccc12", "values": [{"measurement": "IC50", "result": "> 300", "unit": "µM"}]}]}
